Source: publication PMC9643865, “Bromo-protopine, a novel protopine derivative, alleviates tau pathology by activating chaperone-mediated autophagy for Alzheimer’s disease therapy” (Frontiers in Molecular Biosciences, 2022)
Where two headings read alike, the source gives them in different places.

Experiments:
SHSYP301L cells = experiment: Immunoblotting of tau, Ac-α-tubulin and chaperones in tau-overexpressing cells; format: cell-based
Experimental: (§1) SHSY5Y cells stably-expressing mutant tau (SHSYP301L) were cultured in DMEM/F12 + 15% FBS, 3 μg/ml Blasticidin S HCl, and 1X PSN. N2A mouse neuroblastoma and mouse hippocampal neuronal (HT22) cells were cultured in DMEM+10% FBS, and 1X PSN. Sterile complete medium containing PRO-Br was added to the cells, and they were then incubated for 24 h at an optimum temperature of 37°C in a sterile 5% CO2 incubator.
(§2) After PRO-Br treatment, cells were solubilised using cold RIPA lysis buffer (9803, Life Technologies), containing protease and phosphatase inhibitor tablets. Cells were sonicated and centrifuged at 14000 rpm for 15 min. Total protein concentration was determined by BCA protein assay, and the samples were separated on SDS-PAGE and transferred to PVDF membranes. The membranes were blocked, washed, and incubated with primary antibodies (Table 1), and incubated at 4°C, overnight. The membranes were further incubated with the required dilutions of secondary antibody for 1 h, at RT. The chemiluminescent signals were captured using x-ray film in a darkroom, with an appropriate chemiluminescent substrate kit (ThermoFisher Scientific, United States). Films were scanned, and the relative intensities of the signals were analyzed using ImageJ software.

P301S mice [1] = experiment: Rotarod test; format: in vivo; settings: oral, 2.5 months, vs Tg-Vehicle
Experimental: (§3) Female homozygous P301S mice bearing the transgene for MAPT (P301S), were generous gifts from Michael Goedert. P301S-tau mice (1.5-month-old, n = 8) were administered with PRO-Br daily for 2.5 months. The mice models employed in the study were maintained under 12 h light-dark cycles and were provided ad libitum access to chow and water.
Motor behavior was assessed by the rotarod test (Harvard apparatus, SeDaCom v2.0.000) and was performed according to the procedure described previously ([Song et al., 2020]). The study mice were brought into the experimental room 30 min before the test. The training was conducted with a constant speed of 4, 8, and 12 rpm on days 1, 2, and 3, respectively. Three trials were conducted each day and the performance was monitored. On the fourth day, an acceleration mode (4–40 rpm in 5 min) was introduced, and the time spent (s) by each mouse on the rod was recorded by the instrument connected to a computer.

P301S mice [2] = experiment: Contextual fear conditioning test; format: in vivo; settings: oral, 2.5 months
Experimental: as §3
After treating P301S mice with PRO-Br, fear memory consolidation was evaluated by the contextual fear conditioning (CFC) test. The experimental set-up consisted of two individual sound-proof chambers, each having an electric grid on the surface. Inside each chamber, a speaker was attached to introduce a cue tone. The movement of the mice was observed and recorded by ANY maze tracking software on a laptop. The experiment was performed with a continuous white noise (40 units) and white light (40 lux). On the first day of the training session, mice were introduced into the chamber and permitted to explore for 2.5 min. Next, each mouse received three consecutive foot shock cycles; each started with a 28 s cue tone (1,500 Hz) and finished with a 2 s foot shock ([…]). On the second day, the mice were allowed to explore the grid for 3 min, after which they received a cue tone for 30 s without foot shock, and the freezing time was recorded.

HT22 cells = experiment: LAMP2A / HSC70 immunocytochemistry and immunoblotting; format: cell-based, mouse
Experimental: as §1, §2
HT22 cells were cultured in sterile 24-well culture dishes containing 14 mm cover-glass. Cells were treated with PRO-Br (12.5 and 25 μM), and DMSO (0.1%), for 24 h. Cells were fixed with paraformaldehyde (4%), permeabilized with triton-X-100 (0.1%), and blocked with BSA (2%). LAMP2A antibody (1:500), and HSC70 antibody (1:500) was added to the processed cells and incubated overnight at four°C. Alexa Fluor® 488 (green) and Alexa Fluor® 594 (red) secondary antibodies (1:400) were added and incubated for 1.5 h at room temperature. FluorSave reagent (Merck Millipore, United States) was added, then cover-slipped, and images were captured by a Leica confocal imaging system.

[3] = Pharmacokinetic study in brain and plasma after oral dosing, LC-MS/MS; format: in vivo, ICR mice
Experimental: To determine the amount of PRO-Br in the brain, a pharmacokinetic study was performed employing 3-month-old female ICR mice (n = 6, 30 ± 2 g). PRO-Br (10 mg/kg b. wt) was injected orally. Brain tissues and blood samples (intracardial) were collected at various time-points (0, 15, 30, 45, 60, 75, 120, 240, 360, 480 min). Brain tissues and plasma samples were kept at −80°C until analysis. On the day of analysing the samples, the brain tissues were thawed on ice and half brain tissue was taken for analysis. To 200 mg of tissue, 4 times the volume of methanol (100%) was added, and homogenized until a clear solution was observed. The samples were centrifuged at 15,000 RPM for 10 min at 4°C. The supernatant was separated and analyzed using LC-MS/MS.
Quantification of PRO-Br in mice brains was performed by Agilent 6410 LC-ESI-Triple-Quad/TOF. The mobile phase (A) consisted of water with 0.1% formic acid, and the mobile phase (B) consisted of acetonitrile with 0.1% formic acid (B). C18 column was used to elute the desired solutes, based on the protocol: 0–5 min, 23–50% B; 5–15 min, 50–60% B; 15–15.01 min, 60–95% B; 15.01–22 min, 95% B. The ions of PRO-Br were detected in positive ionization mode. Multiple reaction monitoring (MRM) mode was used to monitor the analytes of PRO-Br.

## CN1CCc2cc3c(cc2C(=O)Cc2c(Br)cc4c(c2C1)OCO4)OCO3 [PRO-Br, bromo-protopine]
SHSYP301L cells; 24 h
  PHF1 and TAU5 levels: simultaneously reducing PHF1 and TAU5 levels
  expression of HSP70: significantly and dose-dependently augmented the expression of HSP70
SHSYP301L cells; compared to PRO
  acetylation of α-tubulin: enhanced the acetylation of α-tubulin
SHSYP301L cells; compared to PRO-Br treatment alone
  PHF1 degradation on co-treatment with CMA/lysosomal protease inhibitors E64D and pepstatin: significantly blocked the degradation of PHF1 levels
SHSYP301L cells; preliminary screening
  tau/PHF1-reducing activity: good tau/PHF1-reducing activity
SHSYP301L cells; proteasome, autophagy or lysosome inhibitor co-treatment
  PHF1 degradation on co-treatment with MG132, Wortmannin or Chloroquine: did not block PRO-Br-mediated PHF1 degradation
P301S mice [1]
  latency of falling (rotarod): latency of falling was significantly enhanced
P301S mice [2]
  freezing percentage (CFC): significant increase in freezing percentage
HT22 cells; immunocytochemistry, 12.5 and 25 μM, 24 h
  expression of LAMP2A: distinctly enhanced the expression of LAMP2A in a dose-dependent manner
HT22 cells; immunofluorescence
  interaction between HSC70 and LAMP2A: markedly enhanced the interaction between HSC70 and LAMP2A
[3]; 10 mg/kg oral, female ICR mice, brain
  time retained in the brain: 4.2 h
[3]; compared to PRO
  brain penetrating efficacy: superior compared to its parent compound
[3]; mouse, brain, 10 mg/kg oral, female ICR mice, read-out: brain/plasma ratio
  Kp: 8.08
[3]; mouse, 10 mg/kg oral, female ICR mice, brain, read-out: maximum concentration (Cmax) in the brain
  Cmax: 425 ng/g
[3]; mouse, 10 mg/kg oral, female ICR mice, brain, read-out: maximum time (Tmax) in the brain (converted)
  Tmax: 30 min
[3]; mouse, 10 mg/kg oral, female ICR mice, plasma, read-out: Cmax in the plasma
  Cmax: 91.9 ng/mL
[3]; mouse, 10 mg/kg oral, female ICR mice, plasma, read-out: Tmax in the plasma (converted)
  Tmax: 15 min
